In patent publication US7435837B2, “Dihydrobenzofuranyl alkanamine derivatives and methods for using same” (Wyeth, priority 2003, dated 2008):
Read-outs that look alike come from different tables or passages of the source.

How the values were obtained:
[1] = biological target: T1, human 5-hydroxytryptamine-2C (h5-HT2C) receptor (Homo sapiens, UniProt P28335); assay: [125I]DOI binding to membranes of CHO cells expressing the human 5-HT2C receptor; conditions: [125I]DOI radioligand, CHO cell membranes, room temperature 60 min; read-out: 5-HT2C Affinity Ki
T1 construct: expressed in transfected cells; host or cells: CHO (Chinese Hamster Ovary) cells; membranes
T1 sequence (P28335 33-458): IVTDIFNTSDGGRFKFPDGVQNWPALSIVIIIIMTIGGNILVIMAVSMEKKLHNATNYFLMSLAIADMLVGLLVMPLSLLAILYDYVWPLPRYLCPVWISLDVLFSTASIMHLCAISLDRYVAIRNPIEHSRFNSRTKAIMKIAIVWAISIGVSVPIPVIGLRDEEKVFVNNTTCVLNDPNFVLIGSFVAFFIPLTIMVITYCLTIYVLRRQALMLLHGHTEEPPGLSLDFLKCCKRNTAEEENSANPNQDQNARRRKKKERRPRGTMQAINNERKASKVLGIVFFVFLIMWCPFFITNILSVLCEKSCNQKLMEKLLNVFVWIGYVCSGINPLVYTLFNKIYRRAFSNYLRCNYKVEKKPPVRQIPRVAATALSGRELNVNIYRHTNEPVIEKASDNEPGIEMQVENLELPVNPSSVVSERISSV

[2] = biological target: T2, human 5-HT2C receptor (Homo sapiens, UniProt P28335); assay: 5-HT2C receptor-stimulated calcium mobilization (FLIPR) in CHO cells; assay type: cell-based; conditions: for Emax: CHO; for EC50: calcium mobilization, CHO cells stably expressing human 5-HT2C, read-out: 5-HT2C Function EC50;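 as to all read-outs here: Fluo-3-AM fluorescence read on FLIPR every 1 s, agonist added after 10 baseline reads, response taken as peak minus lowest raw fluorescence count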
T2 sequence (P28335 33-458): T1 sequence (P28335 33-458)

[3] = percentage of the response observed with a maximally effective concentration of 5-HT, read-out: 5-HT2C Function Emax (%)
[4] = percentage of the response observed with a maximally effective concentration of 5-HT

In the case of CNCC1Cc2cccc(-c3c(Cl)cc(Cl)cc3Cl)c2O1 (racemic) [Example 555, (±)-{N-methyl-1-[(7-(2,4,6-trichlorophenyl)-2,3-dihydro-1-benzofuran-2-yl]methanamine], the Ki [1] is reported as 0.6 nM, the Emax [2, 3] is reported as 80% and the EC50 [2] is reported as 4 nM.

Cc1ccccc1-c1cc(C2CCCC2)cc2c1OC(CN)C2 (racemic) [Example 309, (±)-{[5-cyclopentyl-7-(2-methylphenyl)-2,3-dihydro-1-benzofuran-2-yl]methyl}amine] gave a Ki [1] of 8 nM, an Emax [2, 3] of 90% and an EC50 [2] of 107 nM.

Molecule COc1cccc(-c2cccc3c2OC(CN)C3)c1 (single isomer, unassigned; (+)) [Example 133, (+)-1-[7-(3-methoxyphenyl)-2,3-dihydro-1-benzofuran-2-yl]methanamine] has a Ki [1] of 3.6 nM, an Emax [2, 3] of 80% and an EC50 [2] of 66 nM.

In the case of NCC1Cc2cc(C(F)(F)F)cc(-c3cc(F)ccc3F)c2O1 (racemic) [Example 336, (±)-{[7-(2,5-difluorophenyl)-5-(trifluoromethyl)-2,3-dihydro-1-benzofuran-2-yl]methyl}amine], the Ki [1] is reported as 45 nM, the Emax [2, 3] is reported as 90% and the EC50 [2] is reported as 123 nM.

Molecule Cc1cccc(C)c1-c1cc(F)cc2c1OC(CN)C2 (racemic) [Example 227, (±)-{[7-(2,6-dimethylphenyl)-5-fluoro-2,3-dihydro-1-benzofuran-2-yl]methyl}amine] has a Ki [1] of 1.5 nM, an Emax [2, 3] of 95% and an EC50 [2] of 3 nM.

In the case of CNCC1Cc2cc(OC)cc(-c3cc(F)ccc3F)c2O1 (racemic) [Example 498, (±)-{[7-(2,5-difluorophenyl)-5-methoxy-2,3-dihydro-1-benzofuran-2-yl]methyl}methylamine], the Ki [1] is reported as 35 nM, the Emax [2, 3] is reported as 70% and the EC50 [2] is reported as 326 nM.

Cc1ccccc1-c1ccc(F)c2c1OC(CN)C2 (racemic) [Example 99, (±)-1-[4-fluoro-7-(2-methylphenyl)-2,3-dihydro-1-benzofuran-2-yl]methanamine] was tested, and the Ki [1] was 21 nM, the Emax [2, 3] was 60% and the EC50 [2] was 838 nM.

Work on CNCC1Cc2cc(OC)cc(-c3ccccc3C)c2O1 (racemic) [Example 493, (±)-{[7-(2-methylphenyl)-5-methoxy-2,3-dihydro-1-benzofuran-2-yl]methyl}methylamine] yielded a Ki [1] of 11 nM, an Emax [2, 3] of 90% and an EC50 [2] of 8 nM.

Molecule CNCC1Cc2cccc(-c3cccc(Cl)c3)c2O1 (racemic) [Example 416, (±)-[(N-methyl-1-[7-(3-chlorophenyl)-2,3-dihydro-1-benzofuran-2-yl]methanamine] has a Ki [1] of 1.6 nM, an Emax [2, 3] of 70% and an EC50 [2] of 467 nM.

Molecule CNCC1Cc2cc(C)cc(-c3ccccc3OC)c2O1 (racemic) [Example 477, (±)-{[7-(2-methoxyphenyl)-5-methyl-2,3-dihydro-1-benzofuran-2-yl]methyl}methylamine] has a Ki [1] of 6.7 nM, an Emax [2, 3] of 80% and an EC50 [2] of 9 nM.

Cc1cc2c(c(-c3ccc(Cl)cc3Cl)c1)OC(CN)C2 (racemic) [Example 297, (±)-{[7-(2,4-dichlorophenyl)-5-methyl-2,3-dihydro-1-benzofuran-2-yl]methyl}amine] gave a Ki [1] of 0.56 nM, an Emax [2, 3] of 100% and an EC50 [2] of 0.73 nM.

Molecule COc1ccc(-c2cccc3c2OC(CN)C3)c(OC)c1 (racemic) [Example 143, (±)-1-[7-(2,4-dimethoxyphenyl)-2,3-dihydro-1-benzofuran-2-yl]methanamine] has a Ki [1] of 6.3 nM, an Emax [2, 3] of 90% and an EC50 [2] of 1 nM.

NCC1Cc2cc(F)cc(-c3c(Cl)cccc3Cl)c2O1 (racemic) [Example 230, (±)-{[7-(2,6-dichlorophenyl)-5-fluoro-2,3-dihydro-1-benzofuran-2-yl]methyl}amine] gave a Ki [1] of 0.6 nM, an Emax [2, 3] of 90% and an EC50 [2] of 48 nM.

In the case of CNCC1Cc2cccc(-c3ccc(Cl)cc3)c2O1 (racemic) [Example 420, (±)-[(N-methyl-1-[7-(4-chlorophenyl)-2,3-dihydro-1-benzofuran-2-yl]methanamine], the Ki [1] is reported as 7 nM, the Emax [2, 3] is reported as 80% and the EC50 [2] is reported as 504 nM.

CNCC1Cc2ccc(F)c(-c3ccccc3C)c2O1 (racemic) [Example 401, (±)-{[6-fluoro-7-(2-methylphenyl)-2,3-dihydro-1-benzofuran-2-yl]methyl}methylamine] showed a Ki [1] of 0.38 nM, an Emax [2, 3] of 90% and an EC50 [2] of 0.7 nM.

NCC1Cc2cc(F)cc(-c3ccc(F)cc3F)c2O1 (racemic) [Example 215, (±)-{[7-(2,4-difluorophenyl)-5-fluoro-2,3-dihydro-1-benzofuran-2-yl]methyl}amine] gave a Ki [1] of 5 nM, an Emax [2, 3] of 80% and an EC50 [2] of 80 nM.

NCC1Cc2cc(Cl)cc(-c3cccc(Cl)c3Cl)c2O1 (racemic) [Example 247, (±)-{[5-chloro-7-(2,3-dichlorophenyl)-2,3-dihydro-1-benzofuran-2-yl]methyl}amine] showed a Ki [1] of 15 nM, an Emax [2, 3] of 90% and an EC50 [2] of 164 nM.

NCC1Cc2cc(F)cc(-c3ccc(Cl)cc3Cl)c2O1 (racemic) [Example 216, (±)-{[7-(2,4-dichlorophenyl)-5-fluoro-2,3-dihydro-1-benzofuran-2-yl]methyl}amine] gave a Ki [1] of 0.7 nM, an Emax ([2]; read-out: 5-HT2C Function Emax (%), percentage of the response observed with a maximally effective concentration of 5-HT) of 100% and an EC50 [2] of 0.2 nM.

Work on NCC1Cc2cccc(-c3cccnc3)c2O1 (single isomer, unassigned; (+)) [Example 171, (+)-{[7-pyridin-3-yl-2,3-dihydro-1-benzofuran-2-yl]methyl}amine] yielded a Ki [1] of 0.88 nM, an Emax [2, 3] of 100% and an EC50 [2] of 0.7 nM.

For Cc1ccccc1-c1cc(Cl)cc2c1OC(CN)C2 (single isomer, unassigned; (-)) [Example 97, (−)-1-[5-chloro-7-(2-methylphenyl)-2,3-dihydro-1-benzofuran-2-yl]methanamine], the Ki [1] was 4 nM, the EC50 [2] was 577 nM and the “5-HT2C Function Emax (%)” value [2, 4] was 60%.

With CC(C)c1cccc2c1OC(CN)C2 (single isomer, unassigned; (+)) [Example 20, (+)-(7-isopropyl-2,3-dihydro-1-benzofuran-2-yl)methylamine] the Ki [1] was 24 nM, the EC50 [2] was 178 nM and the “5-HT2C Function Emax (%)” value [2, 4] was 70%.

Molecule CNCC1Cc2cccc(-c3cccc(F)c3)c2O1 (racemic) [Example 415, (±)-[(N-methyl-1-[7-(3-fluorophenyl)-2,3-dihydro-1-benzofuran-2-yl]methanamine] has a Ki [1] of 1.1 nM, an Emax [2, 3] of 70% and an EC50 [2] of 109 nM.

For CNCC1Cc2cc(Cl)cc(-c3cc(Cl)ccc3Cl)c2O1 (single isomer, unassigned; (+)) [Example 562, (+)-{[5-chloro-7-(2,5-dichlorophenyl)-2,3-dihydro-1-benzofuran-2-yl]methyl}methylamine], the Ki [1] was 0.48 nM, the Emax [2, 3] was 90% and the EC50 [2] was 2 nM.

NCC1Cc2cccc(-c3ccc(Cl)cc3Cl)c2O1 (racemic) [Example 83, (±)-1-[7-(2,4-dichlorophenyl)-2,3-dihydro-1-benzofuran-2-yl]methanamine] showed a Ki [1] of 1 nM, an Emax [2, 3] of 100% and an EC50 [2] of 7.9 nM.

CC(C)c1cc2c(c(-c3ccccc3Cl)c1)OC(CN)C2 (racemic) [Example 308, (±)-{[5-isopropyl-7-(2-chlorophenyl)-2,3-dihydro-1-benzofuran-2-yl]methyl}amine] was tested, and the Ki [1] was 0.9 nM, the Emax [2, 3] was 90% and the EC50 [2] was 24 nM.
